Test results reported in patent US20240209028A1, “CNP COMPOUNDS” (priority 2022, published 2024).
Starred links: 1 amine or outer side, 2 acyl side, 3 side chain; linkers in the order of their positions; H or OH if unused. Positions of bridges follow the written chain, without caps; N, C: chain ends. Residues, ends and D or L forms follow the SMILES beside them. *: point of attachment. C18 diacid = O=C(O)CCCCCCCCCCCCCCCCC(=O)*; γGlu = O=C(O)[C@H](CCC(=O)[*:2])N[*:1]

Experiments:
[1] = Accelerated chemical stability (RP-UPLC recovery and LCMS degradation pattern, 37° C.); assay type: physicochemical; design: Isomers TZ / Isomers 2 W / Loss of 18 amu TZ / Loss of 18 amu 2 W / Fragments TZ / Fragments 2 W / Fragments 1 W / Fragments 3 W / Fragments 4 W / Fragments 5 W / Fragments 6 W / Others 1 W / Others 3 W / Others 4 W / Others 5 W / Others 6 W / Isomers 1 W / Isomers 3 W / Isomers 4 W / Isomers 5 W / Isomers 6 W / Loss of 18 amu 1 W / Loss of 18 amu 3 W / Loss of 18 amu 4 W / Loss of 18 amu 5 W / Loss of 18 amu 6 W: unit not given here; settings: LCMS, 6 week study
Method: In order to determine the chemical stability of CNP compounds in formulation, samples of CNP compounds in buffer were exposed to accelerated chemical degradation by heating. The stability of a given peptide was assessed by measuring recovery of intact peptide by quantification by RP-UPLC. To assess the chemical degradation pattern samples were also analysed by LC-MS.
Sample preparation: Samples for the 2 week study were prepared according to the principles described in Example 5.
Samples for the 6 week study were prepared by dissolving lyophilized peptide in buffer (8 mM phosphate, 250 mM glycerol, pH 7.4) to a nominal peptide concentration of 5000 nmol/ml followed by pH adjustment with 0.1 N HCl to pH 6.5.
Incubation: For the 2 week study a time-zero (TZ) sample was pulled and stored at −18° C. and the remaining volume was incubated at 37° C. Samples were pulled and stored at −18° C. after 2 weeks of incubation. Frozen samples were thawed, diluted to about 200 nmol/mL and the extent of chemical degradation was determined using LCMS as described.
For the 6 week study a time-zero (TZ) sample was pulled and stored at −18° C. and the remaining volume was incubated at 37° C. Samples were pulled on a weekly basis and stored at −18° C. until the last sampling time point at 6 weeks. Frozen samples were thawed, diluted to about 200 nmol/mL and the extent of chemical degradation was determined using RP-UPLC and LCMS as described.
Analysis of peptide recovery by RP-UPLC: The RP-UPLC method was performed on a Waters ACQUITY H-CLASS UPLC system fitted with a PDA detector. Separation was carried out on an ACQUITY UPLC BEH C8 Column (130 Å, 1.7 μm, 2.1 mm×150 mm) operating at a column temperature of 50° C. with eluent A (19.59 mM NH4H2PO4 41.71 mM (NH4)2HPO4, pH 6.5 and MeCN 9:1 v:v) and eluent B (80% MeCN in water). UV-detection was carried out at 214 nm. The analysis was performed by injection of 3 μL of sample onto the column which was eluted with a 1-step linear gradient of eluents A and B from 27 to 30% B over 20 minutes followed by a wash at 95% B over 2 minutes followed by a re-equilibration phase for 7 minutes at a constant flow rate of 0.3 mL/min. This yielded an analysis time of 30 minutes per sample. The area of the peak corresponding to intact CNP compound was given on a percentage scale relative to the total peptide peak area.
Analysis of chemical degradation patterns by LCMS: Samples were analysed on a […] UPLC from Thermo Scientific, using a Waters Acquity C18 reversed-phase column, 300 Å, […] particles 1 mm×150 mm. The compounds were separated by a linear gradient of solvent B from 5% to 55% over 48 minutes, using solvent A: water, 0.1% formic acid with 0.02% TFA and solvent B: acetonitrile, 0.1% formic acid with 0.02% TFA. Mass spectra were acquired by a Q Exactive Plus hybrid Quadrupole-Orbitrap mass spectrometer, BioPharma option (Thermo Scientific) interfaced with H-ESI II ion source. Data acquisitions were performed with a m/z 500 to 2000 scan range and a resolution of 30000.
The data list was aggregated into a summed table of the compounds. The table headers were defined as follows: […]
Results: The results from LCMS analysis of a 2 week accelerated degradation study on several CNP compounds of the present invention are summarised in Table 12. The results from RP-UPLC and LCMS analysis of a 6 week accelerated degradation study on CNP compound 9482 (Chem. 137) is summarised in Table 13 and Table 14 respectively.

[2] = Mouse growth study (tail and body length); assay type: in vivo, mice (C57BL/6J); settings: for body length higher compared to control group: 35 days; for change in tail length (from day 0) increased compared to control animals: after 35 days; for Tail length, Mean (%) change from day 0 / Body length, Mean (%) change from day 0: C57BL/6J mice
Method: The purpose of this study was to evaluate growth in mice after treatment with two doses of CNP compound.
Procedure: Mice (C57BL/6J, male, age 4 weeks; n=10) received daily subcutaneous injections of compound 9482 or vehicle for 35 days. Formulations were prepared according to the principles described in General Methods of Preparation—Method G (30 and 70 nmol/kg, 10 mL/kg; Formulation buffer 8 mM sodium phosphate, 250 mM glycerol, 0.007% polysorbate 20, pH 7.4). Body weight and tail and body length were measured weekly throughout the study. The increase in growth was expressed as percentage change from day (mean (SD)).
In Table 28, increase in tail length is expressed as percentage change from day 0 (mean (SD)). Statistically significant differences are indicated compared to control group (two-way ANOVA).
In Table 29, increase in body length is expressed as percentage change from day 0 (mean (SD)). Statistically significant differences are indicated compared to control group (two-way ANOVA).

[3] = both 30 and 70 nmol/kg daily s.c., p<0.05

CC[C@H](C)[C@@H]1NC(=O)[C@H](CCCNC(=N)N)NC(=O)[C@H](CC(=O)O)NC(=O)[C@H](CC(C)C)NC(=O)[C@@H]2CCCN2C(=O)[C@H](CC(C)C)NC(=O)CNC(=O)[C@H](Cc2ccccc2)NC(=O)[C@@H](NC(=O)CNC(=O)[C@H](CO)NC(=O)[C@H](CO)NC(=O)[C@H](CC(C)C)NC(=O)CNC(=O)[C@H](CCCCN)NC(=O)[C@H](CCCCN)NC(=O)[C@H](CCC(N)=O)NC(=O)[C@H](C)NC(=O)CNC(=O)[C@H](CCCCN)NC(=O)[C@H](Cc2ccc(O)cc2)NC(=O)[C@H](CCCCN)NC(=O)[C@H](CCCNC(=N)N)NC(=O)[C@H](C)NC(=O)[C@H](CCC(N)=O)NC(=O)[C@@H]2CCCN2C(=O)[C@H](Cc2c[nH]cn2)NC(=O)[C@H](CCC(=O)O)NC(=O)[C@H](CCC(N)=O)NC(=O)CC[C@H](NC(=O)CC[C@H](NC(=O)CC[C@H](NC(=O)CC[C@H](NC(=O)CC[C@H](NC(=O)CCCCCCCCCCCCCCCCC(=O)O)C(=O)O)C(=O)O)C(=O)O)C(=O)O)C(=O)O)CSSC[C@@H](C(=O)O)NC(=O)CNC(=O)[C@H](CC(C)C)NC(=O)CNC(=O)[C@H](CO)NC(=O)[C@H](CC(C)C)NC(=O)[C@H](CO)NC(=O)CNC1=O [compound 9482] ({C18 diacid-γGlu-γGlu-γGlu-γGlu-γGlu}-QEHPQARKYKGAQKKGLSSGCFGLPLDRIGSLSGLGC-OH; disulfide 21-37)
Fragments 1 W ([1]; 1 week at 37° C.): 0.20
Isomers 1 W ([1]; 1 week at 37° C.): 0.00
Loss of 18 amu 1 W ([1]; 1 week at 37° C.): 0.00
Others 1 W ([1]; 1 week at 37° C.): 0.30
Fragments 2 W ([1]; 2 weeks at 37° C.): 0.30
Isomers 2 W ([1]; 2 weeks at 37° C.): 0.60
Loss of 18 amu 2 W ([1]; 2 weeks at 37° C.): 0.10
Others 2 W ([1]; 2 weeks at 37° C.): 0.3%
Fragments 3 W ([1]; 3 weeks at 37° C.): 0.50
Isomers 3 W ([1]; 3 weeks at 37° C.): 1.20
Loss of 18 amu 3 W ([1]; 3 weeks at 37° C.): 0.10
Others 3 W ([1]; 3 weeks at 37° C.): 0.30
Fragments 4 W ([1]; 4 weeks at 37° C.): 0.90
Isomers 4 W ([1]; 4 weeks at 37° C.): 1.70
Loss of 18 amu 4 W ([1]; 4 weeks at 37° C.): 0.20
Others 4 W ([1]; 4 weeks at 37° C.): 0.50
Fragments 5 W ([1]; 5 weeks at 37° C.): 0.80
Isomers 5 W ([1]; 5 weeks at 37° C.): 2.40
Loss of 18 amu 5 W ([1]; 5 weeks at 37° C.): 0.20
Others 5 W ([1]; 5 weeks at 37° C.): 0.40
Fragments 6 W ([1]; 6 weeks at 37° C.): 1.20
Isomers 6 W ([1]; 6 weeks at 37° C.): 3.90
Loss of 18 amu 6 W ([1]; 6 weeks at 37° C.): 0.30
Others 6 W ([1]; 6 weeks at 37° C.): 0.50
Fragments TZ ([1]; time zero): 0.00
Isomers TZ ([1]; time zero): 0.00
Loss of 18 amu TZ ([1]; time zero): 0.00
Others TZ ([1]; time zero): 0.2%
body length higher compared to control group ([2]; 30 nmol/kg daily s.c.): 30%
change in tail length (from day 0) increased compared to control animals ([2]; 30 nmol/kg daily s.c.): 45%
Tail length, Mean (%) change from day 0 ([2]; 30 nmol/kg daily s.c., day 7): 11.8%
Body length, Mean (%) change from day 0 ([2]; 30 nmol/kg daily s.c., day 8): 10.2%
Tail length, Mean (%) change from day 0 ([2]; 30 nmol/kg daily s.c., day 14): 16.0%
Body length, Mean (%) change from day 0 ([2]; 30 nmol/kg daily s.c., day 18): 17.5%
Tail length, Mean (%) change from day 0 ([2]; 30 nmol/kg daily s.c., day 21): 24.1%
Body length, Mean (%) change from day 0 ([2]; 30 nmol/kg daily s.c., day 25): 22.5%
Tail length, Mean (%) change from day 0 ([2]; 30 nmol/kg daily s.c., day 28): 25.6%
Body length, Mean (%) change from day 0 ([2]; 30 nmol/kg daily s.c., day 35): 27.4%
Tail length, Mean (%) change from day 0 ([2]; 30 nmol/kg daily s.c., day 35): 28.5%
body length higher compared to control group ([2]; 70 nmol/kg daily s.c.): 67%
change in tail length (from day 0) increased compared to control animals ([2]; 70 nmol/kg daily s.c.): 83%
Tail length, Mean (%) change from day 0 ([2]; 70 nmol/kg daily s.c., day 7): 14.3%
Body length, Mean (%) change from day 0 ([2]; 70 nmol/kg daily s.c., day 8): 12.8%
Tail length, Mean (%) change from day 0 ([2]; 70 nmol/kg daily s.c., day 14): 20.3%
Body length, Mean (%) change from day 0 ([2]; 70 nmol/kg daily s.c., day 18): 21.5%
Tail length, Mean (%) change from day 0 ([2]; 70 nmol/kg daily s.c., day 21): 29.0%
Body length, Mean (%) change from day 0 ([2]; 70 nmol/kg daily s.c., day 25): 29.0%
Tail length, Mean (%) change from day 0 ([2]; 70 nmol/kg daily s.c., day 28): 32.0%
Body length, Mean (%) change from day 0 ([2]; 70 nmol/kg daily s.c., day 35): 35.3%
Tail length, Mean (%) change from day 0 ([2]; 70 nmol/kg daily s.c., day 35): 35.7%
time after which body length was significantly increased compared to control [2, 3]: 18 days
time after which tail length was significantly increased compared to control [2, 3]: 7 days
